Experimental findings from paper PMC4768645, “Electronic Olfactory Sensor Based on A. mellifera Odorant‐Binding Protein 14 on a Reduced Graphene Oxide Field‐Effect Transistor” (Angewandte Chemie (International Ed. in English), 2015) are described below.

In the experiment the target is T1, odorant-binding protein 14 (OBP14) (Apis mellifera, UniProt A0A8U0WQC3).
T1 construct: recombinant OBP14, cloning, expression and purification in supplement; immobilised via PBSE linker on reduced graphene oxide FET gate
T1 sequence (A0A8U0WQC3 17-135): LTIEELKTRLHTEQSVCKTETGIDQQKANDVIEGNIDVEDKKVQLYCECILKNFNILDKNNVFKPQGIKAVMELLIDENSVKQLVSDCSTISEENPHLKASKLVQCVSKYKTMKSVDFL
In words: rGO-FET biosensor, real-time source-drain current, global Langmuir analysis. The source says: rGO-FET biosensor, real-time source-drain current, global Langmuir analysis on odorant-binding protein 14 (OBP14)

Like-named read-outs stand apart in the source and are kept apart here.

Turning to `CC(C)=CCCC(C)=CC=O` [Citral], the Kd (read-out: Citral) came to 800 µM.
With `C=CCc1ccc(O)c(OC)c1` [Eugenol], under “read-out: Eugenol”, the Kd was 40 µM.
As for `CC(C)=CCC/C(C)=C/CO` [Geraniol], the Kd (read-out: Geraniol) was determined as 3300 µM.
For `COc1cc(CC(=O)O)ccc1O` [Homovanillic acid], the Kd (read-out: Homovanillic acid) is 4 µM.
Regarding `C=CCc1ccc(OC)c(OC)c1` [Methyl eugenol], where the note is “read-out: Methyl eugenol”, the Kd amounted to 1400 µM.
Take `COC(=O)c1ccc(O)c(OC)c1` [Methyl vanillate]: for the setting “read-out: Methyl vanillate”, the Kd came out at 20 µM.
